Consider 29 compounds from article PMC5085792, “Seeking for Non-Zinc-Binding MMP-2 Inhibitors: Synthesis, Biological Evaluation and Molecular Modelling Studies” (International Journal of Molecular Sciences, 2016).

The target of data set [1] is T1, catalytic domain of MMP-13 (Homo sapiens, UniProt P45452).
T1 construct: The catalytic domains of MMP-2, MMP-8 and MMP-13 were purchased from Enzo Life Sciences; purchased Enzo Life Sciences (Lörrach, Germany)
Description: MMP-13 enzyme inhibition assay (fluorogenic substrate). Format: biochemical. The conditions noted are these: mean ± SEM of at least three independent measurements in triplicate. Here is the method:
(§1) The synthesized compounds were submitted to MMP inhibition assays. A dose/response preliminary screening was performed at 100 µM by registering the residual enzyme activity on MMP-2, MMP-8 and MMP-13 (Figure 4). Compounds showing a percentage of inhibition higher than 50% were submitted to IC50 calculation.
(§2) The catalytic domains of MMP-2, MMP-8 and MMP-13 were purchased from Enzo Life Sciences (Lörrach, Germany). The assays were performed in triplicate in 96-well white microtiter plates (Corning, NBS; Corning, NY, USA). For assay measurements, inhibitor stock solutions (DMSO, 10 mM) were diluted to six different concentrations (1 nM–100 µM) in fluorometric assay buffer (50 mM Tris·HCl pH 7.5, 200 mM NaCl, 1 mM CaCl2, 1 µM ZnCl2, 0.05% Brij-35 and 1% DMSO). Enzyme and inhibitor solutions were incubated in the assay buffer for 15 min at room temperature before the addition of the fluorogenic substrate solution (OmniMMP® = Mca-Pro-Leu-Gly-Leu-Dpa-Ala-Arg-NH2, Enzo Life Sciences, 2.5 µM final concentration or OmniMMP®RED = TQ3-GABA-Pro-Cha-Abu-Smc-His-Ala-Dab(6’-TAMRA)-Ala-Lys-NH2, (TAMRA: tetramethylrhodamine) Enzo Life Sciences, 1 µM final concentration). After further incubation for 2–4 h at 37 °C, fluorescence was measured (λex = 340 nm, λem = 405 nm or λex = 545 nm, λem = 572 nm) using a Perkin-Elmer Victor V3 plate reader (Waltham, MA, USA). Control wells lacked inhibitor. The MMP inhibition activity was expressed in relative fluorescence units (RFU). Percent inhibition was calculated from control reactions without inhibitor; IC50 values were determined using GraphPad Prism version 5.0f and are expressed as the mean ± SEM of at least three independent measurements in triplicate.

For data set [2], the target named is T2, catalytic domain of MMP-2 (Homo sapiens, UniProt P08253).
T2 construct: The catalytic domains of MMP-2, MMP-8 and MMP-13 were purchased from Enzo Life Sciences; purchased Enzo Life Sciences (Lörrach, Germany)
T2 sequence (P08253 110-446 limits assumed): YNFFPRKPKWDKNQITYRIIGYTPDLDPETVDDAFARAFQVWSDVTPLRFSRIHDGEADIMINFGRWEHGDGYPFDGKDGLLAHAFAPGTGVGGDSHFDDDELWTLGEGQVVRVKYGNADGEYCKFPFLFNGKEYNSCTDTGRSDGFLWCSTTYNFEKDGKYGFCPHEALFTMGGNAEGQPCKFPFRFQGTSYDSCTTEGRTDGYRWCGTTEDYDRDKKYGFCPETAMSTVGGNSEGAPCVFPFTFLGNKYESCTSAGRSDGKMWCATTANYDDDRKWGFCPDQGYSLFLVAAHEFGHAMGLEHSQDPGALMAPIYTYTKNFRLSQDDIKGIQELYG
Description: MMP-2 enzyme inhibition assay (fluorogenic substrate). The class given is biochemical. The conditions noted are these: for IC50: mean ± SEM of at least three independent measurements in triplicate. Here is the method: as §1, §2

Data set [3] has as its target T3, catalytic domain of MMP-8 (Homo sapiens, UniProt P22894).
T3 construct: The catalytic domains of MMP-2, MMP-8 and MMP-13 were purchased from Enzo Life Sciences; purchased Enzo Life Sciences (Lörrach, Germany)
Description: MMP-8 enzyme inhibition assay (fluorogenic substrate). Format: biochemical. The conditions noted are these: mean ± SEM of at least three independent measurements in triplicate. Here is the method:
as §1, §2

Another data set concerns MMP-13. On the set-up: method as in PMID 23873724. The conditions noted are these: previous work, virtual screening hits; cited from earlier work.
In another data set the test system is MMP-8. On the set-up: method as in PMID 23873724. The conditions noted are these: previous work, virtual screening hits; cited from earlier work.
The next data set has as its system MMP-2. On the set-up: method as in PMID 23873724. The conditions noted are these: previous work, virtual screening hits; cited from earlier work.

T3 sequence (P22894 100-262 limits assumed): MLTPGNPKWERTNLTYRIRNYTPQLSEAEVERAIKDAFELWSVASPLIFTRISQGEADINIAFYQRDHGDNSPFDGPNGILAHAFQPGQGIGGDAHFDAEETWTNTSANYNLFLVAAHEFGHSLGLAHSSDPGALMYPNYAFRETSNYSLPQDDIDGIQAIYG

What is called melting point is the temperature of the solid-liquid transition. One may read the IC50 as the midpoint of a concentration-inhibition curve. With `O=C(NCc1ccccc1)Nc1cccc2ncccc12` [Compound 1c], the melting point is 251 °C (dec.). This compound also gave an IC50 in data set [1] of 58 ± 1 µM. The same compound registered an IC50 in data set [2] of 55 ± 1 µM. The compound further displayed an IC50 in data set [3] above 100 µM. Take `O=C(CCc1ccccc1)Nc1cccc2cnccc12` [Compound 2b]: the melting point lay in the range of 133 to 135 °C. Turning to `O=C(NCc1ccccc1)Nc1ccccn1` [Compound 1p], the melting point was 148 to 150 °C.

The compound `O=C(NCc1ccccc1)c1cccc2cnccc12` [Compound 2c] displayed a melting point of 182 to 183 °C.

`CC(NC(=O)NCc1ccccc1)c1ccccc1` (stereo not drawn) [Compound 1w] showed a melting point of 116 to 118 °C.

With `O=C(Cc1ccccc1)Nc1cccc2cnccc12` [Compound 2a], the melting point lay in the range of 186 to 188 °C. `O=C(NCc1ccccc1)Nc1cc2ccccc2cn1` [Compound 1f] returned a melting point of 168 to 170 °C. The compound `O=C(NCc1ccccc1)Nc1ccc2cn[nH]c2c1` [Compound 1m] displayed a melting point of 198 to 199 °C. Consider `O=C(NCc1ccccc1)Nc1ccc2cc[nH]c2c1` [Compound 1k], for which the melting point fell in the range of 211 to 213 °C. `O=C(NCc1ccccc1)Nc1ccc2[nH]ccc2c1` [Compound 1j] returned a melting point of 197 to 198 °C. Take `O=C(NCCc1ccccc1)c1cccc2cnccc12` [Compound 2d]: the melting point fell in the range of 120 to 121 °C. In turn, `O=C(NCc1ccccc1)Nc1cccc2ccncc12` [Compound 1i] gave a melting point of 206 to 208 °C. For the same compound, in data set [2] (preliminary screening at 100 µM, isoform not given, MMP-2), the “MMP inhibition activity (in words)” value was “inactive”. With `O=C(NCc1ccccc1)Nc1ccc2[nH]ncc2c1` [Compound 1l], the half-maximal inhibitory concentration (IC50) in data set [1] was 98 ± 2 µM; in data set [2], 86 ± 2 µM; in data set [3], above 100 µM. In the case of `O=C(NCc1ccco1)Nc1c[nH]c2ccc(F)cc2c1=O` [Hit 2], the IC50 with MMP-13 was 5 µM; in the data set with MMP-8, 105 µM; in the data set on MMP-2 it was 15 µM.

With `O=C(NCc1ccccc1)Nc1ccnc2ccccc12` [Compound 1b], the melting point lay in the range of 167 to 169 °C.

Regarding `O=C(NCc1ccccc1)Nc1cccnc1` [Compound 1q], the melting point was 154 to 156 °C.

Take `O=C(NCc1ccccc1)Nc1cncc2ccccc12` [Compound 1g]: the melting point fell in the range of 235 to 237 °C. In data set [1], this compound yielded an IC50 of 73 ± 11 µM. Besides, in data set [2], inhibition was half-maximal at 74 ± 3 µM (IC50). This compound also yielded a concentration for half-maximal inhibition (IC50) in data set [3] above 100 µM. On to `O=C(NCc1ccccc1)Nc1ccc2ccccc2c1` [Compound 1o], for which the melting point is 208 to 210 °C. Regarding `COc1ccc(CNC(=O)NCc2ccccc2)cc1OC` [Compound 1u], the melting point amounted to 127 °C. The compound `O=S(=O)(Nc1ccc2cnccc2c1)c1ccccc1` [Compound 2e] yielded a melting point of 228 to 230 °C.

`O=C(NCc1ccco1)Nc1c[nH]c2cccnc2c1=O` [Hit 1]: the IC50 with MMP-13 is 36 µM; with MMP-8, 75 µM; with MMP-2 it was 5 µM. The compound `COc1cccc(CNC(=O)NCc2ccccc2)c1OC` [Compound 1t] returned a melting point of 149 °C.

On to `O=C(NCc1ccccc1)Nc1nccc2ccccc12` [Compound 1e], for which the melting point is 164 to 165 °C. `O=C(NCc1ccccc1)Nc1cccc2cnccc12` [Compound 1h] came in with a melting point of 248 to 249 °C. Moreover, in data set [1], the IC50 was 14 ± 4 µM. The IC50 in data set [2] was 15 ± 4 µM. For the same compound, in data set [3], the IC50 is above 100 µM. The like results for `O=C(NCc1ccc(NS(=O)(=O)c2ccccc2)cc1)Nc1cccc2cnccc12` [Compound 5] were, in that order, 117 to 119 °C, 55 ± 7 µM, 54 ± 7 µM and 88 ± 5 µM. The compound `O=C(NCc1ccccc1)NN1CCCC1` [Compound 1z] showed a melting point of 124 to 126 °C. Still for that read-out and setting: for `O=C(NCc1ccccc1)Nc1cccc2ccccc12` [Compound 1n] the value was 196 to 197 °C; for `O=C(NCc1ccccc1)Nc1ccc(O)cc1` [Compound 1s], 177 to 179 °C. `O=C(NCc1ccc(NC(=O)c2ccccc2)cc1)Nc1cccc2cnccc12` [Compound 7] gave a melting point of 200 to 202 °C. In data set [1], this compound gave an IC50 of 6.6 ± 0.4 µM. Further, the IC50 in data set [2] came out at 7.4 ± 0.8 µM. The compound further returned an IC50 in data set [3] of 48.5 ± 1.6 µM.
